# Test results: patent US7060405B2, “Naphthoquinone derivative and electrophotographic photoreceptor containing the same” (Samsung Electronics Co., Ltd., priority 2003, dated 2006)
# Assay: solubility in an organic solvent
# Format: physicochemical
# Conditions: compared to a conventional electron-transporting material
# Method: In addition, two properties of the naphthoquinone derivative of Formula 2 that was used in Example 1 was measured: solubility in an organic solvent and compatibility with a binder resin.
structure (smiles),measurement,value
COc1ccc(C(=O)C2=C(c3ccccc3)C(=O)c3ccccc3C2=O)cc1 [Formula 2],solubility in an organic solvent,improved
